One may read the pIC50 as −log10 of the IC50, conventionally taken in molar units.

pIC50: −log10 of the molar value.

The target in one assay is T1, MERTK (Homo sapiens, UniProt Q12866).
T1 sequence (Q12866 21-999): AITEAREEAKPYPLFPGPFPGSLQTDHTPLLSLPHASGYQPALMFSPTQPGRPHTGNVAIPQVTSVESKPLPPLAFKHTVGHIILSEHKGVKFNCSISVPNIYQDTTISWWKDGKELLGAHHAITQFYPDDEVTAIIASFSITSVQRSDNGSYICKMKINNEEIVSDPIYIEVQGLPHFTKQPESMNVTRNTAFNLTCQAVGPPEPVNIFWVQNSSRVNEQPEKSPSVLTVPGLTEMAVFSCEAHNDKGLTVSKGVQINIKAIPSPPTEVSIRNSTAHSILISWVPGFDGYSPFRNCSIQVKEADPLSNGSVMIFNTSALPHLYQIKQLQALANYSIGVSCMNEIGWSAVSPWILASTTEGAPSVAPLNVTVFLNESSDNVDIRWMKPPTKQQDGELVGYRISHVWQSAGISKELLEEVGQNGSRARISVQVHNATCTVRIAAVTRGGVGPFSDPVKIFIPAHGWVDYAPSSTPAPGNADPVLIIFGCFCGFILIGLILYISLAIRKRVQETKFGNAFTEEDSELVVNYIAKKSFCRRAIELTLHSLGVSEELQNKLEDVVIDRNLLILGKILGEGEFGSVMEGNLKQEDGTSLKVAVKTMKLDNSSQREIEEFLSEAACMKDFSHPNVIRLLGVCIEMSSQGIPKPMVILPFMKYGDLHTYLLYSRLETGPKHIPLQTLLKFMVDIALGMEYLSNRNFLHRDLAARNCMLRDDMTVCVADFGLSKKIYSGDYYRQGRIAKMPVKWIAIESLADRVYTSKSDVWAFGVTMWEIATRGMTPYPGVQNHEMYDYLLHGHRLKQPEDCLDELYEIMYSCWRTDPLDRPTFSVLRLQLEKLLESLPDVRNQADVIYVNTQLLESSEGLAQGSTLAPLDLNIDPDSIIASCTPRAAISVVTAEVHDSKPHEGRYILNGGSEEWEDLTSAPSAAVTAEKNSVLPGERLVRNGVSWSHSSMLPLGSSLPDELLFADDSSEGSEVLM
Put plainly: TR-FRET kinase activity assay, MERTK. It counts as biochemical. The conditions noted are these: for pIC50: TR-FRET activity assay, ATP at Km, 60 minutes, read-out: Mer IC50; for FLT3/Mer ratio (FLT3 IC50/Mer IC50): ratio of Mer to FLT3: FLT3 IC50/Mer IC50. The procedure, abridged:
(§1)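 Recombinant human kinases, fluorescent peptide substrate, ATP at Km; 1 h RT, pH 7.5. EDTA-quenched, Eu antibody added, TR-FRET read; IC50 determined.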
In general terms: In TR-FRET formats the signal depends on donor and acceptor labels being close together.

The next assay concerns the target T2, FLT3 (Homo sapiens, UniProt P36888).
T2 sequence (P36888 27-993): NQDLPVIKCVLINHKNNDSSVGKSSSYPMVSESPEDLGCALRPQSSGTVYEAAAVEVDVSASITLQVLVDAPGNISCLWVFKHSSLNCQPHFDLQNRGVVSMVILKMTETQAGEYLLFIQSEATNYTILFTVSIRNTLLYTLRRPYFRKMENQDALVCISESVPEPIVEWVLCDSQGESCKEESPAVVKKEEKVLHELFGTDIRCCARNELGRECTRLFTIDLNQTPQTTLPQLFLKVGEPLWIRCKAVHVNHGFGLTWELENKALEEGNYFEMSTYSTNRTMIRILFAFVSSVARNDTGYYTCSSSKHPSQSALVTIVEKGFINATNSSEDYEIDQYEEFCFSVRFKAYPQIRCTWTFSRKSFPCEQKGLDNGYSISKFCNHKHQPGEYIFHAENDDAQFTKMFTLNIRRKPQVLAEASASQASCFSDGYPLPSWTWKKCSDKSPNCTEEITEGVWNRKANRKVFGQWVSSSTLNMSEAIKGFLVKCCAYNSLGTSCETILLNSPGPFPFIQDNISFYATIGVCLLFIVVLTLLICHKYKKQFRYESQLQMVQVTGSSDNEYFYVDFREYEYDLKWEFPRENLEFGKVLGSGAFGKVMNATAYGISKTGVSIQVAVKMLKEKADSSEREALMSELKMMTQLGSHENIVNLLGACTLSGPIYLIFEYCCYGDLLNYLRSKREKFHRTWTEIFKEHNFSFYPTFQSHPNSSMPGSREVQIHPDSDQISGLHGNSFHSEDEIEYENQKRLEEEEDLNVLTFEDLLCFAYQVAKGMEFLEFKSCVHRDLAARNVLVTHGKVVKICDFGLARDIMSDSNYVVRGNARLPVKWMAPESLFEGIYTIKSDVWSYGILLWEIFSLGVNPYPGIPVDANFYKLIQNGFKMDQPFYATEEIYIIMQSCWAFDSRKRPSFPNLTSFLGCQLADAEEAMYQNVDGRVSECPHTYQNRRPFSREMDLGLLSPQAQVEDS
Put plainly: TR-FRET kinase activity assay, FLT3. It counts as biochemical. The conditions noted are these: ATP at Km, 60 minutes. In outline:
as §1

For the compound `CCCCC[C@H](C)Nc1ncc2c(-c3ccc(S(=O)(=O)N4CCOCC4)cc3)cc([C@H]3CC[C@@H](O)CC3)n2n1` [Compound 103, (1R,4s)-4-(2-((S)-heptan-2-ylamino)-5-(4-(morpholinosulfonyl)phenyl)pyrrolo[2,1-f][1,2,4]triazin-7-yl)cyclohexanol], at MERTK, the pIC50 was no less than 7.00; the “FLT3/Mer ratio (FLT3 IC50/Mer IC50)” value is “++ (“++” represents a ratio of between 10 and 100)”. For the same compound, the pIC50 against FLT3 is 6.00 to 7.00.

As for `COCC(C)Nc1ncc2c(-c3ccc(C4(N5CCN(C)CC5)CC4)cc3)cc(C3CCC(O)CC3)n2n1` (stereo not drawn) [Compound 185], on MERTK, the pIC50 was no less than 7.00; the “FLT3/Mer ratio (FLT3 IC50/Mer IC50)” value was “++ (“++” represents a ratio of between 10 and 100)”. Moreover, the pIC50 at FLT3 was 6.00 to 7.00.

On to `COC[C@H](C)Nc1ncc2c(-c3cn(C)cn3)cc([C@H]3CC[C@H](O)CC3)n2n1` [Compound 186], for which the pIC50 on MERTK was no less than 7.00; against FLT3 it was 6.00 to 7.00. The “FLT3/Mer ratio (FLT3 IC50/Mer IC50)” value on MERTK is “++ (“++” represents a ratio of between 10 and 100)”.

Regarding `COC[C@H](C)Nc1ncc2c(-c3ccc(C(=O)N4CCOCC4)cc3)cc([C@H]3CC[C@H](O)CC3)n2n1` [Compound 187, (4-(7-((trans)-4-hydroxycyclohexyl)-2-(((S)-1-methoxypropan-2-yl)amino)pyrrolo[2,1-f][1,2,4]triazin-5-yl)phenyl)(morpholino)methanone], on MERTK, the pIC50 was no less than 7.00 and the “FLT3/Mer ratio (FLT3 IC50/Mer IC50)” value is “+++ (“+++” represents a ratio of >100)”. In addition, the pIC50 at FLT3 is 6.00 to 7.00.

Take `C[C@@H](COC(F)F)Nc1ncc2c(-c3ccc(CN4CCOCC4)cc3)cc([C@H]3CC[C@H](O)CC3)n2n1` [Compound 188]: at MERTK, the negative logarithm of the IC50 (pIC50) is no less than 7.00 and the “FLT3/Mer ratio (FLT3 IC50/Mer IC50)” value is given as “+++ (“+++” represents a ratio of >100)”. At FLT3, the pIC50 is no less than 7.00.

As to `CC(CC1CC1)Nc1ncc2c(-c3ccc(CN4CCOCC4)cc3)cc(C3CCC(O)CC3)n2n1` (stereo not drawn) [Compound 189], the pIC50 at MERTK and against FLT3 was no less than 7.00 each time. For the same compound, the “FLT3/Mer ratio (FLT3 IC50/Mer IC50)” value on MERTK is “++ (“++” represents a ratio of between 10 and 100)”.

For the compound `Cc1cc(-c2cc(C3CCC(O)CC3)n3nc(NC(C)CC4CC4)ncc23)ccn1` (stereo not drawn) [Compound 190], at MERTK, the pIC50 was no less than 7.00 and the “FLT3/Mer ratio (FLT3 IC50/Mer IC50)” value is on record as “+++ (“+++” represents a ratio of >100)”. Besides, on FLT3, the pIC50 is no less than 7.00.

As for `COCC(C)Nc1ncc2c(C3CC4CCC(C3)N4C)cc(C3CCC(O)CC3)n2n1` (stereo not drawn) [Compound 191], the figures for the pIC50 on MERTK and at FLT3 were no less than 7.00 and 5.00 to 6.00, respectively. For the same compound, the “FLT3/Mer ratio (FLT3 IC50/Mer IC50)” value on MERTK is “+++ (“+++” represents a ratio of >100)”.

Regarding `COCC(C)Nc1ncc2c(N3CCOCC3=O)cc(C3CCC(O)CC3)n2n1` (stereo not drawn) [Compound 192], on MERTK, the pIC50 was 6.00 to 7.00; the “FLT3/Mer ratio (FLT3 IC50/Mer IC50)” value was “++ (“++” represents a ratio of between 10 and 100)”. In addition, the pIC50 at FLT3 is 5.00 to 6.00.

Source of the values: patent publication US11040981B2, “Pyrrolotriazine compounds and methods of inhibiting TAM kinases” (Syros Pharmaceuticals, Inc., priority 2017, dated 2021).
